What was measured:
Human β2 adrenoceptor = Human β2 adrenoceptor (Homo sapiens, UniProt P07550); conditions: read-out: B2 binding affinity
Human M3 receptor = Human M3 receptor (Homo sapiens, UniProt P20309); conditions: read-out: M3 binding affinity
Sequence of Human M3 receptor (P20309 whole entry): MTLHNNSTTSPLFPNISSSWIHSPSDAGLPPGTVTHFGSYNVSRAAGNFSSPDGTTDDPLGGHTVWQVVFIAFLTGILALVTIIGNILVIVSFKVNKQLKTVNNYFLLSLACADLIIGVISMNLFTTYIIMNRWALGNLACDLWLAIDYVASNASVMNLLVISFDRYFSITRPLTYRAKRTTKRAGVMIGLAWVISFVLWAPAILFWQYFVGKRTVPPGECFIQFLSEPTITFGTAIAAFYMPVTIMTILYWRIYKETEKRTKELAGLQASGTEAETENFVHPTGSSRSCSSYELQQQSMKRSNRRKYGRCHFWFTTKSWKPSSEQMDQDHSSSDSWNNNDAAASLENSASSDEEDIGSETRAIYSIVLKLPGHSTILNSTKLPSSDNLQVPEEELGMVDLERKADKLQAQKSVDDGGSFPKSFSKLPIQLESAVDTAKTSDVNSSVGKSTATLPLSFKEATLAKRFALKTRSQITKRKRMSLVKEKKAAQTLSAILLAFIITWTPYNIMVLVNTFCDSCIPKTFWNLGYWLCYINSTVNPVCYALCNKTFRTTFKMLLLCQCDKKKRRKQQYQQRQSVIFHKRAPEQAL

Sequence of Human β2 adrenoceptor (P07550 whole entry): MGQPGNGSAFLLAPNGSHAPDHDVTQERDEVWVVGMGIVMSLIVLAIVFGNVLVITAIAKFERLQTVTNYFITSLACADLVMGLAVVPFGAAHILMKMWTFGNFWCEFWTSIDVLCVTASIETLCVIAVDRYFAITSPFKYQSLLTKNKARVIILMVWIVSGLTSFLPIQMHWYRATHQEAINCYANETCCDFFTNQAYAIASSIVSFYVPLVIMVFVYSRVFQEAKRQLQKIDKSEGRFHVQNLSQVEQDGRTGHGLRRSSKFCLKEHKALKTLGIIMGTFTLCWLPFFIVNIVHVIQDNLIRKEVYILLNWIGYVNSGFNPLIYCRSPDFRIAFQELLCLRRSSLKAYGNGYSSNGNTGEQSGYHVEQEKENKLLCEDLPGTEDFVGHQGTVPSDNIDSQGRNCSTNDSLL

| SMILES | IC50 (Human β2 adrenoceptor) | IC50 (Human M3 receptor) |
| --- | --- | --- |
| O=C(COc1cccc([C@](O)(C(=O)OCC2CCN(Cc3ccccc3)CC2)c2ccccc2)c1)N[C@H]1CC[C@H](NC(=O)c2ccc(CCNC[C@H](O)c3ccc(O)c4[nH]c(=O)ccc34)cc2)CC1 [Compound 90, (1-benzylpiperidin-4-yl)methyl (S)-2-hydroxy-2-(3-(2-(((1R,4S)-4-(4-(2-(((R)-2-hydroxy-2-(8-hydroxy-2-oxo-1,2-dihydroquinolin-5-yl)ethyl)amino)ethyl)benzamido)cyclohexyl)amino)-2-oxoethoxy)phenyl)-2-phenylacetate] | 0.3 to 3 nM | 0.3 to 3 nM |
| O=C(COc1cccc([C@](O)(C(=O)OCC2CCN(Cc3ccccc3)CC2)c2ccccc2)c1)NC1CCN(C(=O)c2ccc(CCNC[C@H](O)c3ccc(O)c4[nH]c(=O)ccc34)cc2)CC1 [Compound 91, (1-benzylpiperidin-4-yl)methyl (S)-2-hydroxy-2-(3-(2-((1-(4-(2-(((R)-2-hydroxy-2-(8-hydroxy-2-oxo-1,2-dihydroquinolin-5-yl)ethyl)amino)ethyl)benzoyl)piperidin-4-yl)amino)-2-oxoethoxy)phenyl)-2-phenylacetate] | < 0.3 nM | 0.3 to 3 nM |
| O=C(NC1CCN(C(=O)COc2cccc([C@](O)(C(=O)OCC3CCN(Cc4ccccc4)CC3)c3ccccc3)c2)CC1)c1ccc(CCNC[C@H](O)c2ccc(O)c3[nH]c(=O)ccc23)cc1 [Compound 92, (1-benzylpiperidin-4-yl)methyl (S)-2-hydroxy-2-(3-(2-(4-(4-(2-(((R)-2-hydroxy-2-(8-hydroxy-2-oxo-1,2-dihydroquinolin-5-yl)ethyl)amino)ethyl)benzamido)piperidin-1-yl)-2-oxoethoxy)phenyl)-2-phenylacetate] | < 0.3 nM | < 0.3 nM |
| O=C(COc1cccc([C@](O)(C(=O)OCC2CCN(Cc3ccccc3)CC2)c2ccccc2)c1)N1CC2(C1)CN(C(=O)c1ccc(CCNC[C@H](O)c3ccc(O)c4[nH]c(=O)ccc34)cc1)C2 [Compound 93, (1-benzylpiperidin-4-yl)methyl (S)-2-hydroxy-2-(3-(2-(6-(4-(2-(((R)-2-hydroxy-2-(8-hydroxy-2-oxo-1,2-dihydroquinolin-5-yl)ethyl)amino)ethyl)benzoyl)-2,6-diazaspiro[3.3]heptan-2-yl)-2-oxoethoxy)phenyl)-2-phenylacetate] | < 0.3 nM | 0.3 to 3 nM |
| O=C(COc1cccc([C@](O)(C(=O)OCC2CCN(Cc3ccccc3)CC2)c2ccccc2)c1)N1CC2(CCN(C(=O)c3ccc(CCNC[C@H](O)c4ccc(O)c5[nH]c(=O)ccc45)cc3)CC2)C1 [Compound 94, (1-benzylpiperidin-4-yl)methyl (S)-2-hydroxy-2-(3-(2-(7-(4-(2-(((R)-2-hydroxy-2-(8-hydroxy-2-oxo-1,2-dihydroquinolin-5-yl)ethyl)amino)ethyl)benzoyl)-2,7-diazaspiro[3.5]nonan-2-yl)-2-oxoethoxy)phenyl)-2-phenylacetate] | < 0.3 nM | < 0.3 nM |
| O=C(COc1cccc([C@](O)(C(=O)OCC2CCN(Cc3ccccc3)CC2)c2ccccc2)c1)N1CCC2(CC1)CCN(C(=O)c1ccc(CCNC[C@H](O)c3ccc(O)c4[nH]c(=O)ccc34)cc1)CC2 [Compound 95, (1-benzylpiperidin-4-yl)methyl (S)-2-hydroxy-2-(3-(2-(9-(4-(2-(((R)-2-hydroxy-2-(8-hydroxy-2-oxo-1,2-dihydroquinolin-5-yl)ethyl)amino)ethyl)benzoyl)-3,9-diazaspiro[5.5]undecan-3-yl)-2-oxoethoxy)phenyl)-2-phenylacetate] | < 0.3 nM | < 0.3 nM |
| O=C(COc1cccc([C@](O)(C(=O)OCC2CCN(Cc3ccccc3)CC2)c2ccccc2)c1)N1CCC2(CC1)CN(C(=O)c1ccc(CCNC[C@H](O)c3ccc(O)c4[nH]c(=O)ccc34)cc1)C2 [Compound 96, (1-benzylpiperidin-4-yl)methyl (S)-2-hydroxy-2-(3-(2-(2-(4-(2-(((R)-2-hydroxy-2-(8-hydroxy-2-oxo-1,2-dihydroquinolin-5-yl)ethyl)amino)ethyl)benzoyl)-2,7-diazaspiro[3.5]nonan-7-yl)-2-oxoethoxy)phenyl)-2-phenylacetate] | < 0.3 nM | < 0.3 nM |
| O=C(COc1cccc([C@](O)(C(=O)OCC2CCN(Cc3ccccc3)CC2)c2ccccc2)c1)NCC1CCN(C(=O)c2ccc(CCNC[C@H](O)c3ccc(O)c4[nH]c(=O)ccc34)cc2)CC1 [Compound 97, (1-benzylpiperidin-4-yl)methyl (S)-2-hydroxy-2-(3-(2-(((1-(4-(2-(((R)-2-hydroxy-2-(8-hydroxy-2-oxo-1,2-dihydroquinolin-5-yl)ethyl)amino)ethyl)benzoyl)piperidin-4-yl)methyl)amino)-2-oxoethoxy)phenyl)-2-phenylacetate] | < 0.3 nM | 0.3 to 3 nM |
| O=C(COc1cccc([C@](O)(C(=O)OCC2CCN(Cc3ccccc3)CC2)c2ccccc2)c1)N1CC2(CCCN(C(=O)c3ccc(CCNC[C@H](O)c4ccc(O)c5[nH]c(=O)ccc45)cc3)C2)C1 [Compound 98, (1-benzylpiperidin-4-yl)methyl (S)-2-hydroxy-2-(3-(2-(6-(4-(2-(((R)-2-hydroxy-2-(8-hydroxy-2-oxo-1,2-dihydroquinolin-5-yl)ethyl)amino)ethyl)benzoyl)-2,6-diazaspiro[3.5]nonan-2-yl)-2-oxoethoxy)phenyl)-2-phenylacetate] | 0.3 to 3 nM | 0.3 to 3 nM |
| O=C(COc1cccc([C@](O)(C(=O)OCC2CCN(Cc3ccccc3)CC2)c2ccccc2)c1)N1CCCC2(CCN(C(=O)c3ccc(CCNC[C@H](O)c4ccc(O)c5[nH]c(=O)ccc45)cc3)CC2)C1 [Compound 99, (1-benzylpiperidin-4-yl)methyl (S)-2-hydroxy-2-(3-(2-(9-(4-(2-(((R)-2-hydroxy-2-(8-hydroxy-2-oxo-1,2-dihydroquinolin-5-yl)ethyl)amino)ethyl)benzoyl)-2,9-diazaspiro[5.5]undecan-2-yl)-2-oxoethoxy)phenyl)-2-phenylacetate] | 0.3 to 3 nM | 0.3 to 3 nM |
| O=C(COc1cccc([C@](O)(C(=O)OCC2CCN(Cc3ccccc3)CC2)c2ccccc2)c1)N1CCOC2(CCN(C(=O)c3ccc(CCNC[C@H](O)c4ccc(O)c5[nH]c(=O)ccc45)cc3)CC2)C1 [Compound 100, (1-benzylpiperidin-4-yl)methyl (S)-2-hydroxy-2-(3-(2-(9-(4-(2-(((R)-2-hydroxy-2-(8-hydroxy-2-oxo-1,2-dihydroquinolin-5-yl)ethyl)amino)ethyl)benzoyl)-1-oxa-4,9-diazaspiro[5.5]undecan-4-yl)-2-oxoethoxy)phenyl)-2-phenylacetate] | 0.3 to 3 nM | < 0.3 nM |
| O=C(COc1cccc([C@](O)(C(=O)OCC2CCN(Cc3ccccc3)CC2)c2ccccc2)c1)NC1CN(C(=O)c2ccc(CCNC[C@H](O)c3ccc(O)c4[nH]c(=O)ccc34)cc2)C1 [Compound 101, (1-benzylpiperidin-4-yl)methyl (S)-2-hydroxy-2-(3-(2-((1-(4-(2-(((R)-2-hydroxy-2-(8-hydroxy-2-oxo-1,2-dihydroquinolin-5-yl)ethyl)amino)ethyl)benzoyl)azetidin-3-yl)amino)-2-oxoethoxy)phenyl)-2-phenylacetate] | < 0.3 nM | < 0.3 nM |
| O=C(NC1CN(C(=O)COc2cccc([C@](O)(C(=O)OCC3CCN(Cc4ccccc4)CC3)c3ccccc3)c2)C1)c1ccc(CCNC[C@H](O)c2ccc(O)c3[nH]c(=O)ccc23)cc1 [Compound 102, (1-benzylpiperidin-4-yl)methyl (S)-2-hydroxy-2-(3-(2-(3-(4-(2-(((R)-2-hydroxy-2-(8-hydroxy-2-oxo-1,2-dihydroquinolin-5-yl)ethyl)amino)ethyl)benzamido)azetidin-1-yl)-2-oxoethoxy)phenyl)-2-phenylacetate] | < 0.3 nM | < 0.3 nM |
| O=C(COc1cccc([C@](O)(C(=O)OCC2CCN(Cc3ccccc3)CC2)c2ccccc2)c1)NCCNC(=O)c1ccc(CCNC[C@H](O)c2ccc(O)c3[nH]c(=O)ccc23)cc1 [Compound 103, (1-benzylpiperidin-4-yl)methyl (S)-2-hydroxy-2-(3-(2-((2-(4-(2-(((R)-2-hydroxy-2-(8-hydroxy-2-oxo-1,2-dihydroquinolin-5-yl)ethyl)amino)ethyl)benzamido)ethyl)amino)-2-oxoethoxy)phenyl)-2-phenylacetate] | 0.3 to 3 nM | < 0.3 nM |
| O=C(COc1cccc([C@](O)(C(=O)OCC2CCN(Cc3ccccc3)CC2)c2ccccc2)c1)N[C@@H]1CCN(C(=O)c2ccc(CCNC[C@H](O)c3ccc(O)c4[nH]c(=O)ccc34)cc2)C1 [Compound 104, (1-benzylpiperidin-4-yl)methyl (S)-2-hydroxy-2-(3-(2-(((R)-1-(4-(2-(((R)-2-hydroxy-2-(8-hydroxy-2-oxo-1,2-dihydroquinolin-5-yl)ethyl)amino)ethyl)benzoyl)pyrrolidin-3-yl)amino)-2-oxoethoxy)phenyl)-2-phenylacetate] | 0.3 to 3 nM | < 0.3 nM |
| O=C(COc1cccc([C@](O)(C(=O)OCC2CCN(Cc3ccccc3)CC2)c2ccccc2)c1)N[C@@H]1CCCN(C(=O)c2ccc(CCNC[C@H](O)c3ccc(O)c4[nH]c(=O)ccc34)cc2)C1 [Compound 105, (1-benzylpiperidin-4-yl)methyl (S)-2-hydroxy-2-(3-(2-(((R)-1-(4-(2-(((R)-2-hydroxy-2-(8-hydroxy-2-oxo-1,2-dihydroquinolin-5-yl)ethyl)amino)ethyl)benzoyl)piperidin-3-yl)amino)-2-oxoethoxy)phenyl)-2-phenylacetate] | 0.3 to 3 nM | 0.3 to 3 nM |
| O=C(COc1cccc([C@](O)(C(=O)OCC2CCN(Cc3ccccc3)CC2)c2ccccc2)c1)N[C@H]1CCCN(C(=O)c2ccc(CCNC[C@H](O)c3ccc(O)c4[nH]c(=O)ccc34)cc2)C1 [Compound 106, (1-benzylpiperidin-4-yl)methyl (S)-2-hydroxy-2-(3-(2-(((S)-1-(4-(2-(((R)-2-hydroxy-2-(8-hydroxy-2-oxo-1,2-dihydroquinolin-5-yl)ethyl)amino)ethyl)benzoyl)piperidin-3-yl)amino)-2-oxoethoxy)phenyl)-2-phenylacetate] | 0.3 to 3 nM | 0.3 to 3 nM |

Source: patent US9579314B2 (priority 2015, dated 2017)
